Experimental findings from ChEMBL document CHEMBL4396887, “Five-Membered N-Heterocyclic Scaffolds as Novel Amino Bioisosteres at γ-Aminobutyric Acid (GABA) Type A Receptors and GABA Transporters” (J Med Chem, 2019) are described below.

Format in all cases: cell-based
In assay [1] the target is T1, Gamma-aminobutyric acid receptor subunit alpha-4/beta-2/gamma-2 (Homo sapiens, UniProt P47870+P18507+P48169). Nature of the assay: Agonist activity at recombinant human GABA-A alpha4beta2gamma2S receptor transiently expressed in human tsA201 cells at >= 100 uM incubated for 30 mins and measured up to 90 secs by FMP dye based FLIPR membrane potential blue assay.
Assay [2] has as its target T2, Gamma-aminobutyric acid receptor subunit rho-1 (Homo sapiens, UniProt P24046). In words: Agonist activity at recombinant human GABA-A rho-1 receptor transiently expressed in human tsA201 cells at 300 uM incubated for 30 mins and measured up to 90 secs by FMP dye based FLIPR membrane potential blue assay.
The target in assay [3] is T3, GABA-A receptor; alpha-1/beta-2/gamma-2 (Homo sapiens) (UniProt P14867+P47870+P18507). Nature of the assay: Agonist activity at recombinant human GABA-A alpha1beta2gamma2S receptor transiently expressed in human tsA201 cells at >= 1000 uM incubated for 30 mins and measured up to 90 secs by FMP dye based FLIPR membrane potential blue assay.
The target in assay [4] is T3, GABA-A receptor; alpha-1/beta-2/gamma-2 (Homo sapiens). In words: Agonist activity at recombinant human GABA-A alpha1beta2gamma2S receptor transiently expressed in human tsA201 cells at >= 300 uM incubated for 30 mins and measured up to 90 secs by FMP dye based FLIPR membrane potential blue assay.
For assay [5], the target named is T2, Gamma-aminobutyric acid receptor subunit rho-1. Nature of the assay: Agonist activity at recombinant human GABA-A rho-1 receptor transiently expressed in human tsA201 cells at >= 100 uM incubated for 30 mins and measured up to 90 secs by FMP dye based FLIPR membrane potential blue assay.
For assay [6], the species on record is Homo sapiens. Nature of the assay: Agonist activity at recombinant human GABA-A alpha3beta2gamma2S receptor transiently expressed in human tsA201 cells at >= 300 uM incubated for 30 mins and measured up to 90 secs by FMP dye based FLIPR membrane potential blue assay.
The species named for assay [7] is Homo sapiens. In words: Agonist activity at recombinant human GABA-A alpha3beta2gamma2S receptor transiently expressed in human tsA201 cells at >= 100 uM incubated for 30 mins and measured up to 90 secs by FMP dye based FLIPR membrane potential blue assay.
The species named for assay [8] is Homo sapiens. Nature of the assay: Selectivity ratio of IC50 for human GAT1 expressed in Flp-In CHO cells to IC50 for human BGT1 expressed in Flp-In CHO cells.
The species entered for assay [9] is Homo sapiens. Nature of the assay: Selectivity ratio of IC50 for human GAT2 expressed in Flp-In CHO cells to IC50 for human BGT1 expressed in Flp-In CHO cells.
For assay [10], the species on record is Homo sapiens. Nature of the assay: Selectivity ratio of IC50 for human GAT3 expressed in Flp-In CHO cells to IC50 for human BGT1 expressed in Flp-In CHO cells.
Assay [11] addresses T1, Gamma-aminobutyric acid receptor subunit alpha-4/beta-2/gamma-2. Nature of the assay: Agonist activity at recombinant human GABA-A alpha4beta2gamma2S receptor transiently expressed in human tsA201 cells at >= 1000 uM incubated for 30 mins and measured up to 90 secs by FMP dye based FLIPR membrane potential blue assay.

Active and inactive are the calls of the source. No cut-off for these calls is given here.

T2 sequence (P24046 whole entry): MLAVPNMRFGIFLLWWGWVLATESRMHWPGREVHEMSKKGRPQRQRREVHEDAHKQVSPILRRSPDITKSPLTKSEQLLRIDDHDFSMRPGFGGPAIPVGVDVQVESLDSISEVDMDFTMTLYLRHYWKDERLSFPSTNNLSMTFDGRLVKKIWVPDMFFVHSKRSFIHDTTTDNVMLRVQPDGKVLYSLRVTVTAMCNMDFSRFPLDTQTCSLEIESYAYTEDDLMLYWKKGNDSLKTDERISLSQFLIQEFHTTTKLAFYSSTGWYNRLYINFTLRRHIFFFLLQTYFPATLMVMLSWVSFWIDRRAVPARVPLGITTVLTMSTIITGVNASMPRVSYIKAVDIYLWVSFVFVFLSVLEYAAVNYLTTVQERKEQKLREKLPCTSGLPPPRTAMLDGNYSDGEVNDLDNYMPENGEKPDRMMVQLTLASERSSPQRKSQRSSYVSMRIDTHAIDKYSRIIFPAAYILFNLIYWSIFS

For the compound `C[C@@H](C(=O)O)[C@H]1CSC(N)=N1` (relative stereo), the outcome in assay [1] was Active. Moreover, the outcome in assay [2] was inactive.

Take `C[C@@H]1SC(N)=N[C@@H]1CC(=O)O` (relative stereo): the outcome in [3] was Active. For the same compound, the outcome in assay [2] was inactive.

Turning to `C[C@H]1SC(N)=N[C@@H]1CC(=O)O` (relative stereo), the outcome in assay [4], in [5] and in assay [6] was Active.

Turning to `O=C(O)C[C@@H]1CCNC1`, the outcome in assay [4], in assay [7] and in assay [5] was Active.

Consider `NC1=NC(CC(=O)O)CN1` (centres undefined), for which the Ratio IC50 in assay [8], in assay [9] and in assay [10] was 14 to 44 each time.

Turning to `C[C@@H](C(=O)O)[C@@H]1CSC(N)=N1` (relative stereo), the outcome in assay [11] was Active.
